Experimental data taken from the supplement of paper PMC11208160.

assay: recombinant UMI read abundance after kanamycin selection (control-corrected) (log10(CPM+1)); higher = more efficient recombination; extreme values may be limits of the assay; sequences stand for … in AGTGCAGAGAAAATCGGCCAGTTTTCTCTGCCTGCAGTCCGCATGCCGTGGGACCCCTTGGGTTCTAACCTGTTGCCTAGATTTATGCAGCGGACTGCCTTTCTCCCAAAGTGATAAACCGG…AGGTTGGTTTCACT; site = the 11-nt donor
How it was run: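 After plating on IPTG (0.07 mM) plus kanamycin, or unselected, in two replicates, recombinant UMIs were PCR-amplified across the donor–target junction and sequenced. The cells were Escherichia coli co-electroporated with a UMI-tagged donor and donor-binding-loop pair library and a target plasmid with a fixed target and T7-inducible IS621 bridge recombinase. Values are log10(CPM+1), with CPM averaged over replicates and scaled by control-derived factors.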
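Further: IS621 bridge recombinase in Escherichia coli cells against a fixed T5 target plasmid.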

Sequence	recombinant UMI read abundance (log10)
CCTAATACATGGACCGGTTTTCCCGGTAATCCGTATTTGAC (site CCTAATACTGG)	0
CCTAATACATGGACCGGTTTTCCCGGTAATCCGTATTTGAC (site CCTAATACTGT)	0
CCTAATTCATGGACCGGTTTTCCCGGTAATCCGTATTTGGC (site CCTAATACTGC)	0
CCTAATTCATGGACCGGTTTTCCCGGTAATCCGTATTTGGC (site CCTAATCCTGC)	0
CCTAATTCATGGACCGGTTTTCCCGGTAATCCGTATTTGGC (site CCTAATGCTGC)	0
CCTAATTCATGGACCGGTTTTCCCGGTAATCCGTATTTGGC (site CCTAATTCTGC)	0
CCTAGAACATGGACCGGTTTTCCCGGTAATCCGTATTTGAG (site ACTAGAACTCT)	0.00253
CCTAGAACATGGACCGGTTTTCCCGGTAATCCGTATTTGAG (site CCTAGAACTCT)	0.00591
CCTAGAACATGGACCGGTTTTCCCGGTAATCCGTATTTGAG (site GCTAGAACTCT)	0.0133
CCTAGAACATGGACCGGTTTTCCCGGTAATCCGTATTTGAG (site TCTAGAACTCT)	0.00636
CCTAGAGCATGGACCGGTTTTCCCGGTAATCCGTATTTGTT (site CCTAGAGCTAA)	0.633
CCTAGGTCATGGACCGGTTTTCCCGGTAATCCGTATTTGCC (site CCTAGGTCTGG)	0
CCTAGTGCATGGACCGGTTTTCCCGGTAATCCGTATTTGGT (site ACTAGTGCTAC)	0.00584
CCTAGTGCATGGACCGGTTTTCCCGGTAATCCGTATTTGGT (site CCTAGTGCTAC)	0.533
CCTAGTGCATGGACCGGTTTTCCCGGTAATCCGTATTTGGT (site GCTAGTGCTAC)	0.0365
CCTAGTGCATGGACCGGTTTTCCCGGTAATCCGTATTTGGT (site TCTAGTGCTAC)	0.0125
CCTATATCATGGACCGGTTTTCCCGGTAATCCGTATTTGTC (site CCAATATCTGA)	0
CCTATATCATGGACCGGTTTTCCCGGTAATCCGTATTTGTC (site CCCATATCTGA)	0.00678
CCTATATCATGGACCGGTTTTCCCGGTAATCCGTATTTGTC (site CCGATATCTGA)	0

Sequence	recombinant UMI read abundance (log10)
CCTATATCATGGACCGGTTTTCCCGGTAATCCGTATTTGTC (site CCTATATCTGA)	0
CCTCACACATGGACCGGTTTTCCCGGTAATCCGTATTTGTA (site CCACACACTTA)	0
CCTCACACATGGACCGGTTTTCCCGGTAATCCGTATTTGTA (site CCCCACACTTA)	0.0116
CCTCACACATGGACCGGTTTTCCCGGTAATCCGTATTTGTA (site CCGCACACTTA)	0.0283
CCTCACACATGGACCGGTTTTCCCGGTAATCCGTATTTGTA (site CCTCACACTTA)	0.166
CCTCGAGCATGGACCGGTTTTCCCGGTAATCCGTATTTGTG (site CCTCGAGCTCA)	0.234
CCTCTTGCATGGACCGGTTTTCCCGGTAATCCGTATTTGAG (site CCTCTTGCTCT)	0.0146
CCTCTTTCATGGACCGGTTTTCCCGGTAATCCGTATTTGAG (site CCTCTTTCTCT)	0.00323
CCTGAAGCATGGACCGGTTTTCCCGGTAATCCGTATTTGAT (site CCTAAAGCTAT)	0.231
CCTGAAGCATGGACCGGTTTTCCCGGTAATCCGTATTTGAT (site CCTCAAGCTAT)	0
CCTGAAGCATGGACCGGTTTTCCCGGTAATCCGTATTTGAT (site CCTGAAGCTAT)	0.209
CCTGAAGCATGGACCGGTTTTCCCGGTAATCCGTATTTGAT (site CCTTAAGCTAT)	0
CCTGATACATGGACCGGTTTTCCCGGTAATCCGTATTTGGC (site CCTAATACTGC)	0
CCTGATACATGGACCGGTTTTCCCGGTAATCCGTATTTGGC (site CCTCATACTGC)	0
CCTGATACATGGACCGGTTTTCCCGGTAATCCGTATTTGGC (site CCTGATACTGC)	0
CCTGATACATGGACCGGTTTTCCCGGTAATCCGTATTTGGC (site CCTTATACTGC)	0
CCTGCACCATGGACCGGTTTTCCCGGTAATCCGTATTTGGA (site CCTGCACCTTC)	0.00678
CCTGCTACATGGACCGGTTTTCCCGGTAATCCGTATTTGCG (site CCTGCTACTCG)	0.0136
CCTGGCACATGGACCGGTTTTCCCGGTAATCCGTATTTGAA (site CCTGGCACTTT)	0.0111

Sequence	recombinant UMI read abundance (log10)
CCTGGTGCATGGACCGGTTTTCCCGGTAATCCGTATTTGTA (site CCTGGTGCTTA)	0.698
CCTGTAGCATGGACCGGTTTTCCCGGTAATCCGTATTTGAG (site CCTGTAGCTCT)	0.443
CCTGTATCATGGACCGGTTTTCCCGGTAATCCGTATTTGCA (site ACAGTATCTTG)	0
CCTGTATCATGGACCGGTTTTCCCGGTAATCCGTATTTGCA (site CCTGTATCTTG)	0
CCTGTCGCATGGACCGGTTTTCCCGGTAATCCGTATTTGAG (site CCTGTCGCTCT)	0.909
CCTGTGGCATGGACCGGTTTTCCCGGTAATCCGTATTTGTA (site CCTGTGGCTTA)	0.327
CCTTAAGCATGGACCGGTTTTCCCGGTAATCCGTATTTGAT (site CCTAAAGCTAT)	0
CCTTAAGCATGGACCGGTTTTCCCGGTAATCCGTATTTGAT (site CCTCAAGCTAT)	0.0107
CCTTAAGCATGGACCGGTTTTCCCGGTAATCCGTATTTGAT (site CCTGAAGCTAT)	0
CCTTAAGCATGGACCGGTTTTCCCGGTAATCCGTATTTGAT (site CCTTAAGCTAT)	0.00726
CCTTAGACATGGACCGGTTTTCCCGGTAATCCGTATTTGAG (site CATTAGACTCT)	0.0191
CCTTAGACATGGACCGGTTTTCCCGGTAATCCGTATTTGAG (site CCTTAGACTCT)	0.0167
CCTTAGACATGGACCGGTTTTCCCGGTAATCCGTATTTGAG (site CGTTAGACTCT)	0.0159
CCTTAGACATGGACCGGTTTTCCCGGTAATCCGTATTTGAG (site CTTTAGACTCT)	0.0107
CCTTGTCCATGGACCGGTTTTCCCGGTAATCCGTATTTGCG (site CCTTGTCCTCG)	0.00291
CCTTTACCATGGACCGGTTTTCCCGGTAATCCGTATTTGAA (site CCTTTACCTTT)	0.019
CCTTTCTCATGGACCGGTTTTCCCGGTAATCCGTATTTGCG (site CCTTTCTCTCG)	0
CCTTTGCCATGGACCGGTTTTCCCGGTAATCCGTATTTGTG (site CCTTTGCCTCA)	0.00549
CGAACATCATGGACCGGTTTTCCCGGTAATCCGTATTTGCC (site CGAACATCTGG)	0.671
